Reference: ChEMBL document CHEMBL1128197 (J Med Chem, 1995)

Target: Translocator protein (Rattus norvegicus, UniProt P16257)
Test: Binding affinity constant for peripheral (mitochondrial) Benzodiazepine receptor

Chain of Translocator protein (P16257 whole entry, looked up): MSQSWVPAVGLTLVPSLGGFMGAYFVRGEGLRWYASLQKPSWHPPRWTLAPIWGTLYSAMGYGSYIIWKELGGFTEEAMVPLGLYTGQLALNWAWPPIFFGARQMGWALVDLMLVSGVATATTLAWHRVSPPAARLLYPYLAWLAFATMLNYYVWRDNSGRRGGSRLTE

CC(=O)OC1=C(c2ccc(Cl)cc2)Sc2ccccc2-n2cccc21
Ki: 0.03 µM

COC1=C(c2ccccc2)Sc2ccccc2-n2cccc21
Ki: 7 µM

COc1ccc(C2=C(OC(=O)c3cccnc3)c3cccn3-c3ccccc3S2)cc1
Ki: > 0.01 µM

COc1ccc(C2=C(OS(C)(=O)=O)c3cccn3-c3ccccc3S2)cc1
Ki: 0.095 µM

CN(C)C(=O)OC1=C(c2ccccc2)Sc2ccccc2-n2cccc21
Ki: 0.009 µM

COc1ccc(C2=C(OC(=O)c3cc(OC)c(OC)c(OC)c3)c3cccn3-c3cc(Cl)ccc3S2)cc1
Ki: > 0.01 µM

C1=C(c2ccccc2)Sc2ccccc2-n2cccc21
Ki: 3.15 µM

CN1CCN=C(c2ccccc2)c2cc(Cl)ccc21 [MEDAZEPAM]
Kd: > 0.01 µM
